According to patent publication US7858635B2 (priority 2005, dated 2010):
Like-named read-outs stand apart in the source and are kept apart here.

What was measured:
M1 muscarinic receptor = molecular target: T1, M1 muscarinic receptor (Homo sapiens, UniProt P11229); assay: Functional mobilization of intracellular calcium (FLIPR, Fluo-3), M1-CHO cells; type: cell-based; settings: for Emax: read-out: M1 Efficacy
T1 construct: expressed in transfected cells; host or cells: CHO cells (M1-CHO, under zeocin and G418 selection)
T1 sequence (P11229 1-460): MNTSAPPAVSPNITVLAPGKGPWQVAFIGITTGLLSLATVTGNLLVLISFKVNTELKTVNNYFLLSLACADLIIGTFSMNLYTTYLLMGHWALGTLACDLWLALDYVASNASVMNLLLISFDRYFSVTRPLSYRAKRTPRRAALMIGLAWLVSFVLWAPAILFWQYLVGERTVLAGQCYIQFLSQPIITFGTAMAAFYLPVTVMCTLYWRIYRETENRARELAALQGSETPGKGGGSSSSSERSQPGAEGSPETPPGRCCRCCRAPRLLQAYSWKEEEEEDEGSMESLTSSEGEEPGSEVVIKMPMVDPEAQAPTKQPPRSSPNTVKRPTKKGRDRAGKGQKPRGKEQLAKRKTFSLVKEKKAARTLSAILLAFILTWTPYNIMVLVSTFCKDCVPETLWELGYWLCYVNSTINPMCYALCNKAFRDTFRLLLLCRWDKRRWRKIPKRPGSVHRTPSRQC
Outline: (§1)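 Fluo-3 read-out, ex 488/em 540 nm, 60 sec on FLIPR 3. For agonist mode, compound added directly; for inhibition, 15 min compound pre-incubation before carbachol at EC80 (added as a 3× solution), or co-application. Buffer pH 7.4 with 1 mM probenecid; DMSO 0.5%.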

M4 muscarinic receptor = molecular target: T2, M4 muscarinic receptor (Homo sapiens, UniProt P08173); assay: Functional mobilization of intracellular calcium (FLIPR, Fluo-3), M4-CHO cells; type: cell-based; settings: for Emax: read-out: M4 Efficacy
T2 construct: expressed in transfected cells; host or cells: CHO cells (M4-CHO, under puromycin, zeocin and blasticidin selection)
T2 sequence (P08173 1-479): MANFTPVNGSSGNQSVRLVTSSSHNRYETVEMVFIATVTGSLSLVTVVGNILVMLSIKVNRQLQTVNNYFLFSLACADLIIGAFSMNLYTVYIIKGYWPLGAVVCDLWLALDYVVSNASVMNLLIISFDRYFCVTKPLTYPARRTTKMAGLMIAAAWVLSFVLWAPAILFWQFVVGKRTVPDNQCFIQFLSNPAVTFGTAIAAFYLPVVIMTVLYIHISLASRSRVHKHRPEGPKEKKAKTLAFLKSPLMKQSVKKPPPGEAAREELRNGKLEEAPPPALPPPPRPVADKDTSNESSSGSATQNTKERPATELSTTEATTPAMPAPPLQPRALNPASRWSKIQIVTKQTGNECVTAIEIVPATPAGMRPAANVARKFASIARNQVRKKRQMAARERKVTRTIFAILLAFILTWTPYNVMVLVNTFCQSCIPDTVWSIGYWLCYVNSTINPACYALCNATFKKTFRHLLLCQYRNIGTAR
Outline: as §1

[1] = compound nos. 1-454, 100% efficacy is the maximum response obtained with the Carbachol control
[2] = compound nos. 1-454, M1-CHO cells, calcium mobilization
[3] = compound nos. 1-454, M4-CHO cells, calcium mobilization
[4] = compound nos. 455-509, 100% efficacy is the maximum response obtained with the Carbachol control

Row | SMILES | Emax (M1 muscarinic receptor; [1]) | M1 Activity (M1 muscarinic receptor; [2]) | Emax (M4 muscarinic receptor; [1]) | M4 Activity (M4 muscarinic receptor; [3]) | further results
1 | CCOC(=O)N1CCC(N2CCC3(CC2)CN(C(=O)C2CCCC2)c2ccc(F)cc23)CC1 [compound 17] | < 65% | ++ (activity was measured to be between 0.7 μM and 3.0 μM) | 55 to 70% | ++ (activity was measured to be between 0.1 μM and 4.0 μM) | –
2 | CCOC(=O)N1CCC(N2CCC3(CC2)CN(C(=O)C2CCC2)c2ccc(F)cc23)CC1 [compound 254] | 65 to 85% | + (activity was measured to be greater than or equal to 3.0 μM) | 55 to 70% | + (activity was measured to be greater than or equal to 4.0 μM) | –
3 | CCOC(=O)N1CCC(N2CCC3(CC2)CNc2ccc(Cl)cc23)CC1 [compound 19] | 65 to 85% | +++ (activity was measured to be less than or equal to 0.7 μM) | 55 to 70% | ++ (activity was measured to be between 0.1 μM and 4.0 μM) | –
4 | COC(=O)N1CCC(N2CCC3(CC2)CN(C(C)=O)c2ccc(F)cc23)CC1 [compound 374] | 65 to 85% | ++ (activity was measured to be between 0.7 μM and 3.0 μM) | 55 to 70% | + (activity was measured to be greater than or equal to 4.0 μM) | –
5 | CC(=O)N1CC2(CCN(C3CC4CCC3C4)CC2)c2cc(C)ccc21 (stereo not drawn) [compound 138] | 65 to 85% | +++ (activity was measured to be less than or equal to 0.7 μM) | 55 to 70% | + (activity was measured to be greater than or equal to 4.0 μM) | –
6 | CCOC(=O)N1C2CCC1CC(N1CCC3(CC1)CN(C(=O)Nc1ccc(F)cc1)c1ccc(F)cc13)C2 (stereo not drawn) [compound 197] | < 65% | ++ (activity was measured to be between 0.7 μM and 3.0 μM) | < 55% | + (activity was measured to be greater than or equal to 4.0 μM) | –
7 | CCOC(=O)N1C2CCC1CC(N1CCC3(CCc4ccccc43)CC1)C2 (stereo not drawn) [compound 365] | 65 to 85% | +++ (activity was measured to be less than or equal to 0.7 μM) | < 55% | + (activity was measured to be greater than or equal to 4.0 μM) | –
8 | CCOC(=O)N1CCC(N2CCC3(CC2)CN(C(=O)c2ccc4c(c2)OCO4)c2ccc(F)cc23)CC1 [compound 401] | 65 to 85% | – | < 55% | – | M1 Activity (M1 muscarinic receptor; compound nos. 1-454): +++ (activity was measured to be less than or equal to 0.7 μM); M4 Activity (M4 muscarinic receptor; compound nos. 1-454): + (activity was measured to be greater than or equal to 4.0 μM)
9 | Fc1ccc2c(c1)C1(CCN(C[C@H]3C[C@H]4CC[C@H]3C4)CC1)CO2 [compound 207] | 65 to 85% | ++ (activity was measured to be between 0.7 μM and 3.0 μM) | < 55% | + (activity was measured to be greater than or equal to 4.0 μM) | –
10 | COc1ccc(OC(=O)N2C3CCC2CC(N2CCC4(CC2)COc2ccc(F)cc24)C3)cc1 (stereo not drawn) [compound 100] | – | +++ (activity was measured to be less than or equal to 0.7 μM) | – | ++ (activity was measured to be between 0.1 μM and 4.0 μM) | Emax (M1 muscarinic receptor): 65 to 85%; Emax (M4 muscarinic receptor): 55 to 70%
11 | CCCOC(=O)N1CCC(CN2CCC3(CC2)CN(C(C)=O)c2ccc(C)cc23)CC1 [compound 306] | < 65% | + (activity was measured to be greater than or equal to 3.0 μM) | < 55% | + (activity was measured to be greater than or equal to 4.0 μM) | –
12 | Cc1ccc2c(c1)C1(CCN([C@@H]3C[C@@H]4CC[C@@H]3C4)CC1)CN2 [compound 23] | – | ++ (activity was measured to be between 0.7 μM and 3.0 μM) | – | + (activity was measured to be greater than or equal to 4.0 μM) | M1 Efficacy (M1 muscarinic receptor; [1]): + (efficacy was calculated to be 65% or less); M4 Efficacy (M4 muscarinic receptor; [1]): + (efficacy was calculated to be 55% or less)
13 | CCCOC(=O)N1CCC(N2CCC3(CC2)CN(C(=O)N(C)C)c2ccc(F)cc23)CC1 [compound 91] | 65 to 85% | +++ (activity was measured to be less than or equal to 0.7 μM) | < 55% | ++ (activity was measured to be between 0.1 μM and 4.0 μM) | –
14 | CC(=O)N1CC2(CCN(C3CCN(C(=O)O[C@H]4CCOC4)CC3)CC2)c2cc(F)ccc21 [compound 418] | < 65% | – | < 55% | – | M1 Activity (M1 muscarinic receptor; compound nos. 1-454): + (activity was measured to be greater than or equal to 3.0 μM); M4 Activity (M4 muscarinic receptor; compound nos. 1-454): + (activity was measured to be greater than or equal to 4.0 μM)
15 | CN(C)C(=O)N1CC2(CCN(C3CCN(c4ncns4)CC3)CC2)c2ccccc21 [compound 506] | – | – | – | – | Emax (M1 muscarinic receptor; [4]): > 100%; M1 Activity (M1 muscarinic receptor; compounds 455-509): ++ (activity was measured to be between 2.0 μM and 5.0 μM); Emax (M4 muscarinic receptor; [4]): 25 to 100%; M4 Activity (M4 muscarinic receptor; compounds 455-509): ++ (activity was measured to be between 2.0 μM and 5.0 μM)
16 | Clc1ccc2c(c1)C1(CCN(C3C[C@@H]4CCC3C4)CC1)CO2 (stereo in doubt) [compound 1, 1′-((1S,2R,4R)-bicyclo[2.2.1]heptan-2-yl)-5-chloro-2H-spiro[benzofuran-3,4′-piperidine]] | 65 to 85% | ++ (activity was measured to be between 0.7 μM and 3.0 μM) | > 70% | ++ (activity was measured to be between 0.1 μM and 4.0 μM) | –
17 | CCOC(=O)N1CCC(N2CCC3(CC2)CN(C(=O)c2ccccc2OC)c2ccc(F)cc23)CC1 [compound 262] | < 65% | + (activity was measured to be greater than or equal to 3.0 μM) | < 55% | + (activity was measured to be greater than or equal to 4.0 μM) | –
18 | CC(=O)N1CC2(CCN(C3CC4CCC(C4)C3)CC2)c2cc(F)ccc21 (stereo not drawn) [compound 35] | > 85% | +++ (activity was measured to be less than or equal to 0.7 μM) | > 70% | ++ (activity was measured to be between 0.1 μM and 4.0 μM) | –
19 | Cc1nsc(N2CCC(N3CCC4(CCN(C(=O)N(C)C)c5ccccc54)CC3)CC2)n1 [compound 474] | – | – | – | – | Emax (M1 muscarinic receptor; [4]): > 100%; M1 Activity (M1 muscarinic receptor; compounds 455-509): +++ (activity was measured to be less than or equal to 2.0 μM); Emax (M4 muscarinic receptor; [4]): 25 to 100%; M4 Activity (M4 muscarinic receptor; compounds 455-509): ++ (activity was measured to be between 2.0 μM and 5.0 μM)
20 | CN(C)C(=O)N1CC2(CCN(C3CCN(c4ccccc4F)CC3)CC2)c2cc(F)ccc21 [compound 437] | 65 to 85% | – | < 55% | – | M1 Activity (M1 muscarinic receptor; compound nos. 1-454): ++ (activity was measured to be between 0.7 μM and 3.0 μM); M4 Activity (M4 muscarinic receptor; compound nos. 1-454): ++ (activity was measured to be between 0.1 μM and 4.0 μM)
21 | CC(=O)N1CCC2(CCN(C3CCN(c4nc(C)cs4)CC3)CC2)c2ccccc21 [compound 483] | – | – | – | – | Emax (M1 muscarinic receptor; [4]): 25 to 100%; M1 Activity (M1 muscarinic receptor; compounds 455-509): ++ (activity was measured to be between 2.0 μM and 5.0 μM); Emax (M4 muscarinic receptor; [4]): 25 to 100%; M4 Activity (M4 muscarinic receptor; compounds 455-509): ++ (activity was measured to be between 2.0 μM and 5.0 μM)
22 | CCOC(=O)N1C2CCC1CC(N1CCC3(CC1)CN(C(=O)c1cc(C)nn1C(C)(C)C)c1ccc(F)cc13)C2 (stereo not drawn) [compound 189] | 65 to 85% | +++ (activity was measured to be less than or equal to 0.7 μM) | 55 to 70% | + (activity was measured to be greater than or equal to 4.0 μM) | –
23 | CN(C)C(=O)N1CC2(CCN(C3CCN(c4cnccn4)CC3)CC2)c2cc(F)ccc21 [compound 444] | 65 to 85% | – | 55 to 70% | – | M1 Activity (M1 muscarinic receptor; compound nos. 1-454): +++ (activity was measured to be less than or equal to 0.7 μM); M4 Activity (M4 muscarinic receptor; compound nos. 1-454): +++ (activity was measured to be less than or equal to 0.1 μM)
24 | C1=C[C@H]2C[C@H]1C[C@@H]2CN1CCC2(CCc3ccccc32)CC1 [compound 263] | < 65% | +++ (activity was measured to be less than or equal to 0.7 μM) | < 55% | +++ (activity was measured to be less than or equal to 0.1 μM) | –
